{
  "source": "patent US20250277030A1",
  "about": "“ANTI-NAPI2B ANTIBODIES AND METHODS OF USE” (Zymeworks BC Inc., priority 2022, published 2025)",
  "key": {"[1]": {"test_system": "HCC-78 cells", "test": "Internalization by flow cytometry in HCC-78 cells", "type": "cell-based, human", "settings": "antibody 10 nM", "method": "Briefly, antibodies were fluorescently labeled by coupling to a Fab fragment AF488 conjugate targeting anti-Human IgG Fe (Jackson Immuno Research Labs, West Grove, PA; Cat. No. 109-547-008) at a 1:1 molar ratio in PBS pH 7.4 (Thermo Fisher Scientific, Waltham, MA; Cat. No. 10010-023), for 24 hours at 4° C. Cells were seeded at 50,000 cells/well in RPMI 1640, ATCC modification (Thermo Fisher Scientific, Waltham, MA) supplemented with 10% fetal bovine serum (Thermo Fisher Scientific, Waltham, MA) in 48-well plates and incubated overnight under standard culturing conditions (37° C./5% CO2) to allow attachment. […] Following incubation, cells were dissociated, washed, and surface AF488 fluorescence was quenched using an anti-AF488 antibody (Life Technologies, Carlsbad, CA; Cat. No. A-11094) at 100 nM for 30 minutes at 4° C. […] (internalized fluorescence) was detected by flow cytometry on a BD LSRFortessa™ Cell Analyzer (BD Biosciences, Franklin Lake, NJ) with 1,000 minimum events collected per well. The AF488/FITC-A GeoMean (fluorescence signal geometric mean, proportional to anti-Human Fab AF488 labelling) was calculated for the live single cell population using FlowJo™ Version 10.8.1 (BD Biosciences, Franklin Lake, NJ) and plotted using GraphPad Prism Version 9 (GraphPad Software, San Diego, CA)."}, "[2]": {"molecular_target": "T1, NaPi2b expressed on TOV-21G cells (Homo sapiens, UniProt O95436)", "T1 construct": "IGROV-1 and TOV-21G cells express endogenous NaPi2b at high and moderate levels, respectively; endogenous in cells; host or cells: TOV-21G", "T1 sequence (O95436 1-690)": "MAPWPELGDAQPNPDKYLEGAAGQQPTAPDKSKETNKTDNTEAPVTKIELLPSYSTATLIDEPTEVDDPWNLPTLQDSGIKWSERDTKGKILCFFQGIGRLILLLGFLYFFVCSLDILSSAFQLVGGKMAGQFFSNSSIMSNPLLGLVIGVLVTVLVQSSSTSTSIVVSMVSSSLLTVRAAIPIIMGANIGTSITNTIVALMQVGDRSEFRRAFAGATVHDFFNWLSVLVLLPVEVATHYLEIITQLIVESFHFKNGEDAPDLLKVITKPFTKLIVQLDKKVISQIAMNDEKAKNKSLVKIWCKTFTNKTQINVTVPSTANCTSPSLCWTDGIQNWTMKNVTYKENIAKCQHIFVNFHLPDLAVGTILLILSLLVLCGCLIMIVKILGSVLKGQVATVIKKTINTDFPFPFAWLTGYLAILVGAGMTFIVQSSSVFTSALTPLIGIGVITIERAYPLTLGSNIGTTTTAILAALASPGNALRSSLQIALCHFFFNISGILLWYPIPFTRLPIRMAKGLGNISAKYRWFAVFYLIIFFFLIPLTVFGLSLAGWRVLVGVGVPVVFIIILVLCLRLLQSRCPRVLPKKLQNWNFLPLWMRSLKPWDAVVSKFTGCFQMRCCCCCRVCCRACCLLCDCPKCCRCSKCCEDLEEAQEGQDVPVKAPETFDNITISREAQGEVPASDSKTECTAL", "test": "Cellular binding to TOV-21G cells by flow cytometry (Example 19)", "settings": "NB = no binding (apparent Kd >150 nM)", "method": "Briefly, cells were seeded at 50,000 cells/well in conical-bottom 96-well plates and treated with test antibody for 24 hours at 4° C. to prevent internalization. Palivizumab (anti-RSV antibody, v22277) was included as a negative control. […] Following incubation, cells were washed and stained with anti-Human IgG Fc AF647 conjugate (Jackson Immuno Research Labs, West Grove, PA; Cat. No. 109-605-098) at 4° C. for 30 min. Following incubation and washing, fluorescence was detected by flow cytometry on a BD LSRFortessa™ Cell Analyzer (BD Biosciences, Franklin Lake, NJ) with 1,000 minimum events collected per well. The AF647/APC-A GeoMean (fluorescence signal geometric mean, proportional to anti-Human AF647 binding) was calculated for the live cell population using FlowJo™ Version 10.8.1 (BD Biosciences, Franklin Lake, NJ) and plotted for each test antibody using GraphPad Prism Version 9 (GraphPad Software, San Diego, CA).\nThe ability of the humanized antibody variants v38591 and v29456 to bind to NaPi2b expressed on cells was assessed on endogenous NaPi2b-expressing tumor cell lines IGROV-1 (ovarian adenocarcinoma) and TOV-21G (ovarian carcinoma) by flow cytometry. IGROV-1 and TOV-21G cells express endogenous NaPi2b at high and moderate levels, respectively, as described in Example 10.\nCellular binding was performed according to methods described in Example 13."}},
  "data": [
    {"substance": "v22277: anti-RSV antibody palivizumab, negative control; has a heterodimeric Fc [reference compound]", "values": [
      {"measurement": "Internalized Fluorescence Fold-Over Palivizumab", "setting": "[1]; HCC-78, 5 hrs", "value": 1.0, "unit": "fold"},
      {"measurement": "Internalized Fluorescence Fold-Over Palivizumab", "setting": "[1]; HCC-78, 24 hrs", "value": 1.0, "unit": "fold"},
      {"measurement": "Kd", "setting": "[2]", "value": "> 150", "unit": "nM"}
    ]}
  ]
}
